Test results: the NIST ThermoML archive (doi:10.1021/acs.jced.6b00895)
± gives the expanded uncertainty stated by the source. One block for each molecule: values may come before it.

Details: Liquid, Ebulliometric method (Recirculating still)

vapor or sublimation pressure (393.15 K): 101.3 ± 1.5 kPa
SMILES: COCC(C)O (centres undefined) [1-methoxy-2-propanol]

vapor or sublimation pressure (402.65 K): 101.3 ± 1.5 kPa
SMILES: COC(C)CO (centres undefined) [2-methoxy-1-propanol]

vapor or sublimation pressure (397.67 K): 101.3 ± 1.5 kPa
SMILES: COCCO [2-methoxyethan-1-ol]

vapor or sublimation pressure (373.19 K): 101.3 ± 1.5 kPa
SMILES: O [water]
